Reference: patent US20130165368A1, “ANTIMICROBIAL COMPOUNDS” (priority 2010, published 2013)
Values after ≈ are worked out from the molar mass of the structure shown.

system: Enterococcus faecium (VRE) NCTC 12952; assay: MIC agar dilution, VRE strain 30; type: cell-based; conditions: 22 hrs
Description: (§1) Molar equivalent concentrations were used to allow comparison between compounds of differing molecular mass. Due to weighing difficulties, any compound in solid form was melted in a water bath prior to dilution. To make ten-times strength concentrations, which takes into account agar dilution, 0.0352 mmol of each compound was weighed into plastic universal bottles and 4 mL of sterile distilled water (SDW) was added. To produce a homogenous emulsion the universals were vortexed; once achieved the emulsions were serial diluted by adding 2 mL to 2 mL of SDW.
(§2) For every 100 mL of Isosensitest agar (IST) (CM0471; Oxoid, Basingstoke, England), 3.1 g of the IST powder was added to 100 mL SDW (as per manufacturer's instructions) and sterilised for 15 minutes at 121° C. Once sterilised, the molten agar was cooled to 50° C. in a water-bath. Subsequently 4.8 g of CCEY powder (BC2160; Bioconnections, Wetherby, England), also known as Brazier's medium, was added to 100 mL SDW for every 100 mL of agar needed. This was then sterilised for 15 minutes at 121° C. Once sterilised the molten agar was cooled to 50° C. in a water-bath and 4 mL of egg-yolk emulsion (S2073; TCS Biosciences Ltd, Buckingham, United Kingdom) and 1 mL of lysed defibrinated horse blood (HB035; TCS Biosciences Ltd, Buckingham, United Kingdom) were also added for every 100 mL needed. Horse blood lysis is achieved by dilution to half concentration with SDW; when fully lysed the mixture will turn dark red in colour.
(§3) 18 mL agar was added to each universal and then poured into sterile Petri dishes. This step creates a 1/10 dilution resulting in agar plates of the required strength. Control plates for each set of strains were created by adding 18 mL of agar to 2 mL of SDW.
(§4) Suspensions of each bacterial species were prepared with a density equal to that of a 0.5 McFarland standard using a densitometer. All suspensions were made using sterile distilled water and fresh 18-20 hour cultures. As a 0.5 McFarland standard contains 1.5×10^8 CFU/mL and the multipoint inoculators applies 1 μL spots of liquid, each bacterial suspension was diluted 1/15 (20 μL suspension to 280 μL sterile distilled water).
(§5) Bacterial suspensions were prepared from fresh 18-24 hour cultures as previously described. 1 μL of each strain was inoculated onto all 100 agar plates containing a different chemical concentration and the 2 control plates. This was done using a multipoint inoculator which inoculates 20 strains per plate. All plates were incubated for 22 hours at 37° C. in aerobic conditions.
(§6) Each plate was examined for bacterial growth after 22 and 48 hours, with each being incubated in between examinations. A positive result was recorded as growth of ≧10 colonies. A negative result was recorded as growth of <10 colonies as this is equivalent to 99.9% inhibition. The lowest concentration of chemical that inhibited growth was recorded as the MIC. The results are recorded in Table IV below, where the numbers are quoted in mmol/L.
(§7) Given the positive performance of the ethoxylates of lauryl alcohol in reducing the MIC for a number of the micro-organisms tested, further MIC testing of Laureth-1 [C12E1] through to Laureth-8 [C12E8] was conducted on each of the following: • 10 strains of vancomycin-resistant enterococci (VRE)—listed in Table V below; and • 20 strains of methicillin-resistant Staphylococcus aureus (MRSA)—listed in Table VI.
(§8) The alkanol, alkanol derivatives, agar plates, and inocula were all prepared in the same way as described above.
(§9) The plates were examined in the same manner as described above and the results are recorded in Table VII below, where the numbers are quoted in mmol/L.

Compound	MIC [µM]
CCCCCCCCCCCCOCCOCCOCCOCCOCCOCCOCCOCCO [L8, Octaethylene Glycol Monododecyl Ether]	> 880
CCCCCCCCCCCCOCCOCCOCCOCCOCCO [L5, Pentaethylene Glycol Monododecyl Ether]	220 (≈ 89.5 µg/mL)

same assay, conditions: 48 hrs

Compound	MIC [µM]
CCCCCCCCCCCCOCCOCCOCCOCCOCCOCCOCCOCCO [L8, Octaethylene Glycol Monododecyl Ether]	> 880
CCCCCCCCCCCCOCCOCCOCCOCCOCCO [L5, Pentaethylene Glycol Monododecyl Ether]	220 (≈ 89.5 µg/mL)

system: MRSA FRA 920; assay: MIC agar dilution, MRSA strain 38; type: cell-based; conditions: Staphylococcus aureus, 22 hrs
Description: as §1, §2, §3, §4, §5, §6, §7, §8, §9

Compound	MIC [µM]
CCCCCCCCCCCCOCCOCCOCCOCCOCCOCCOCCOCCO [L8, Octaethylene Glycol Monododecyl Ether]	> 440
CCCCCCCCCCCCOCCOCCOCCOCCOCCO [L5, Pentaethylene Glycol Monododecyl Ether]	110 (≈ 44.7 µg/mL)

same assay, conditions: Staphylococcus aureus, 48 hrs

Compound	MIC [µM]
CCCCCCCCCCCCOCCOCCOCCOCCOCCOCCOCCOCCO [L8, Octaethylene Glycol Monododecyl Ether]	> 440
CCCCCCCCCCCCOCCOCCOCCOCCOCCO [L5, Pentaethylene Glycol Monododecyl Ether]	110 (≈ 44.7 µg/mL)

system: Candida glabrata; assay: MIC agar dilution, micro-organism 20 (3943); type: cell-based; conditions: Nakaseomyces glabratus, 22 h, Candida glabrata 3943; 22 hrs; read-out: MIC
In short: (§10)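 Agar dilution in Isosensitest/CCEY agar with egg yolk and lysed horse blood; compounds as aqueous emulsions (myristyl and lauryl alcohol with 1-methyl-2-pyrrolidone and Tween 20). 1 µL spots of 1/15-diluted 0.5 McFarland suspensions, 37 °C aerobic, read at 22 and 48 h; MIC (mmol/L) is lowest concentration giving <10 colonies.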

Compound	MIC [µM]
CCCCCCCCCCCCOCCOCCOCCOCCOCCOCCOCCOCCO [L8, Octaethylene Glycol Monododecyl Ether]	> 880
CCCCCCCCCCCCOCCOCCOCCOCCOCCO [L5, Pentaethylene Glycol Monododecyl Ether]	110 (≈ 44.7 µg/mL)

same assay, conditions: Nakaseomyces glabratus, 48 h, Candida glabrata 3943; 48 hrs; read-out: MIC

Compound	MIC [µM]
CCCCCCCCCCCCOCCOCCOCCOCCOCCOCCOCCOCCO [L8, Octaethylene Glycol Monododecyl Ether]	> 880
CCCCCCCCCCCCOCCOCCOCCOCCOCCO [L5, Pentaethylene Glycol Monododecyl Ether]	220 (≈ 89.5 µg/mL)

system: Staphylococcus epidermidis; assay: MIC agar dilution, micro-organism 14 (11047); type: cell-based; conditions: Staphylococcus epidermidis 11047; 22 hrs; read-out: MIC
In short: as §10

Compound	MIC [µM]
CCCCCCCCCCCCOCCOCCOCCOCCOCCOCCOCCOCCO [L8, Octaethylene Glycol Monododecyl Ether]	110 (≈ 59.3 µg/mL)
CCCCCCCCCCCCOCCOCCOCCOCCOCCO [L5, Pentaethylene Glycol Monododecyl Ether]	110 (≈ 44.7 µg/mL)

same assay, conditions: Staphylococcus epidermidis 11047; 48 hrs; read-out: MIC

Compound	MIC [µM]
CCCCCCCCCCCCOCCOCCOCCOCCOCCOCCOCCOCCO [L8, Octaethylene Glycol Monododecyl Ether]	110 (≈ 59.3 µg/mL)
CCCCCCCCCCCCOCCOCCOCCOCCOCCO [L5, Pentaethylene Glycol Monododecyl Ether]	110 (≈ 44.7 µg/mL)

system: MRSA EMRSA 16 03732/95; assay: MIC agar dilution, MRSA strain 45; type: cell-based; conditions: Staphylococcus aureus, 22 hrs
Description: as §1, §2, §3, §4, §5, §6, §7, §8, §9

Compound	MIC [µM]
CCCCCCCCCCCCOCCOCCOCCOCCOCCOCCOCCOCCO [L8, Octaethylene Glycol Monododecyl Ether]	> 440
CCCCCCCCCCCCOCCOCCOCCOCCOCCO [L5, Pentaethylene Glycol Monododecyl Ether]	110 (≈ 44.7 µg/mL)

same assay, conditions: Staphylococcus aureus, 48 hrs

Compound	MIC [µM]
CCCCCCCCCCCCOCCOCCOCCOCCOCCOCCOCCOCCO [L8, Octaethylene Glycol Monododecyl Ether]	> 440
CCCCCCCCCCCCOCCOCCOCCOCCOCCO [L5, Pentaethylene Glycol Monododecyl Ether]	110 (≈ 44.7 µg/mL)

system: MRSA EMRSA 16 21354/95; assay: MIC agar dilution, MRSA strain 44; type: cell-based; conditions: Staphylococcus aureus, 22 hrs
Description: as §1, §2, §3, §4, §5, §6, §7, §8, §9

Compound	MIC [µM]
CCCCCCCCCCCCOCCOCCOCCOCCOCCOCCOCCOCCO [L8, Octaethylene Glycol Monododecyl Ether]	> 440
CCCCCCCCCCCCOCCOCCOCCOCCOCCO [L5, Pentaethylene Glycol Monododecyl Ether]	110 (≈ 44.7 µg/mL)

same assay, conditions: Staphylococcus aureus, 48 hrs

Compound	MIC [µM]
CCCCCCCCCCCCOCCOCCOCCOCCOCCOCCOCCOCCO [L8, Octaethylene Glycol Monododecyl Ether]	> 440
CCCCCCCCCCCCOCCOCCOCCOCCOCCO [L5, Pentaethylene Glycol Monododecyl Ether]	110 (≈ 44.7 µg/mL)

system: Enterococcus faecalis (VRE) MB 726; assay: MIC agar dilution, VRE strain 28; type: cell-based; conditions: 22 hrs
Description: as §1, §2, §3, §4, §5, §6, §7, §8, §9

Compound	MIC [µM]
CCCCCCCCCCCCOCCOCCOCCOCCOCCOCCOCCOCCO [L8, Octaethylene Glycol Monododecyl Ether]	880 (≈ 474 µg/mL)
CCCCCCCCCCCCOCCOCCOCCOCCOCCO [L5, Pentaethylene Glycol Monododecyl Ether]	220 (≈ 89.5 µg/mL)

same assay, conditions: 48 hrs

Compound	MIC [µM]
CCCCCCCCCCCCOCCOCCOCCOCCOCCOCCOCCOCCO [L8, Octaethylene Glycol Monododecyl Ether]	> 880
CCCCCCCCCCCCOCCOCCOCCOCCOCCO [L5, Pentaethylene Glycol Monododecyl Ether]	220 (≈ 89.5 µg/mL)

system: Steptococcus pyogenes; assay: MIC agar dilution, micro-organism 11 (8306); type: cell-based; conditions: 22 h, Steptococcus pyogenes 8306; 22 hrs; read-out: MIC
In short: as §10

Compound	MIC [µM]
CCCCCCCCCCCCOCCOCCOCCOCCOCCOCCOCCOCCO [L8, Octaethylene Glycol Monododecyl Ether]	≤ 50
CCCCCCCCCCCCOCCOCCOCCOCCOCCO [L5, Pentaethylene Glycol Monododecyl Ether]	≤ 50

same assay, conditions: 48 h, Steptococcus pyogenes 8306; 48 hrs; read-out: MIC

Compound	MIC [µM]
CCCCCCCCCCCCOCCOCCOCCOCCOCCOCCOCCOCCO [L8, Octaethylene Glycol Monododecyl Ether]	≤ 50
CCCCCCCCCCCCOCCOCCOCCOCCOCCO [L5, Pentaethylene Glycol Monododecyl Ether]	≤ 50

system: Listeria monocytogenes; assay: MIC agar dilution, micro-organism 15 (11994); type: cell-based; conditions: Listeria monocytogenes 11994; 22 hrs; read-out: MIC
In short: as §10

Compound	MIC [µM]
CCCCCCCCCCCCOCCOCCOCCOCCOCCOCCOCCOCCO [L8, Octaethylene Glycol Monododecyl Ether]	440 (≈ 237 µg/mL)
CCCCCCCCCCCCOCCOCCOCCOCCOCCO [L5, Pentaethylene Glycol Monododecyl Ether]	110 (≈ 44.7 µg/mL)

same assay, conditions: Listeria monocytogenes 11994; 48 hrs; read-out: MIC

Compound	MIC [µM]
CCCCCCCCCCCCOCCOCCOCCOCCOCCOCCOCCOCCO [L8, Octaethylene Glycol Monododecyl Ether]	> 880
CCCCCCCCCCCCOCCOCCOCCOCCOCCO [L5, Pentaethylene Glycol Monododecyl Ether]	220 (≈ 89.5 µg/mL)

system: Enterococcus faecium (VRE) MB 3137; assay: MIC agar dilution, VRE strain 26; type: cell-based; conditions: 22 hrs
Description: as §1, §2, §3, §4, §5, §6, §7, §8, §9

Compound	MIC [µM]
CCCCCCCCCCCCOCCOCCOCCOCCOCCOCCOCCOCCO [L8, Octaethylene Glycol Monododecyl Ether]	> 880
CCCCCCCCCCCCOCCOCCOCCOCCOCCO [L5, Pentaethylene Glycol Monododecyl Ether]	440 (≈ 179 µg/mL)

same assay, conditions: 48 hrs

Compound	MIC [µM]
CCCCCCCCCCCCOCCOCCOCCOCCOCCOCCOCCOCCO [L8, Octaethylene Glycol Monododecyl Ether]	> 880
CCCCCCCCCCCCOCCOCCOCCOCCOCCO [L5, Pentaethylene Glycol Monododecyl Ether]	> 880

system: Enterococcus casseliflavus (VRE) Clin waste; assay: MIC agar dilution, VRE strain 23; type: cell-based; conditions: 22 hrs
Description: as §1, §2, §3, §4, §5, §6, §7, §8, §9

Compound	MIC [µM]
CCCCCCCCCCCCOCCOCCOCCOCCOCCOCCOCCOCCO [L8, Octaethylene Glycol Monododecyl Ether]	440 (≈ 237 µg/mL)
CCCCCCCCCCCCOCCOCCOCCOCCOCCO [L5, Pentaethylene Glycol Monododecyl Ether]	110 (≈ 44.7 µg/mL)

same assay, conditions: 48 hrs

Compound	MIC [µM]
CCCCCCCCCCCCOCCOCCOCCOCCOCCOCCOCCOCCO [L8, Octaethylene Glycol Monododecyl Ether]	440 (≈ 237 µg/mL)
CCCCCCCCCCCCOCCOCCOCCOCCOCCO [L5, Pentaethylene Glycol Monododecyl Ether]	110 (≈ 44.7 µg/mL)

system: MRSA EMRSA 15 19972/98; assay: MIC agar dilution, MRSA strain 39; type: cell-based; conditions: Staphylococcus aureus, 22 hrs
Description: as §1, §2, §3, §4, §5, §6, §7, §8, §9

Compound	MIC [µM]
CCCCCCCCCCCCOCCOCCOCCOCCOCCOCCOCCOCCO [L8, Octaethylene Glycol Monododecyl Ether]	> 440
CCCCCCCCCCCCOCCOCCOCCOCCOCCO [L5, Pentaethylene Glycol Monododecyl Ether]	110 (≈ 44.7 µg/mL)

same assay, conditions: Staphylococcus aureus, 48 hrs

Compound	MIC [µM]
CCCCCCCCCCCCOCCOCCOCCOCCOCCOCCOCCOCCO [L8, Octaethylene Glycol Monododecyl Ether]	> 440
CCCCCCCCCCCCOCCOCCOCCOCCOCCO [L5, Pentaethylene Glycol Monododecyl Ether]	110 (≈ 44.7 µg/mL)

system: Enterococcus faecalis (VRE) PHLS URINE 2000; assay: MIC agar dilution, VRE strain 21; type: cell-based; conditions: 22 hrs
Description: as §1, §2, §3, §4, §5, §6, §7, §8, §9

Compound	MIC [µM]
CCCCCCCCCCCCOCCOCCOCCOCCOCCOCCOCCOCCO [L8, Octaethylene Glycol Monododecyl Ether]	220 (≈ 119 µg/mL)
CCCCCCCCCCCCOCCOCCOCCOCCOCCO [L5, Pentaethylene Glycol Monododecyl Ether]	110 (≈ 44.7 µg/mL)

same assay, conditions: 48 hrs

Compound	MIC [µM]
CCCCCCCCCCCCOCCOCCOCCOCCOCCOCCOCCOCCO [L8, Octaethylene Glycol Monododecyl Ether]	220 (≈ 119 µg/mL)
CCCCCCCCCCCCOCCOCCOCCOCCOCCO [L5, Pentaethylene Glycol Monododecyl Ether]	110 (≈ 44.7 µg/mL)
